No end group written: not given here.
Experiments:
Type in all cases: binding, human
[1] = test system: IgM of cerebrospinal fluids from patients suffering from MS; assay: ELISA of pentadecapeptide phage clones, IgM response of CSFs (FIG. 6); settings: CSF 4 and CSF 7 (MS), CSF 12 (other neurological disease), CSFs diluted 1/10
Excerpt: FIG. 6 represents the IgM response of the CSFs with respect to phages expressing the sequences SEQ ID NO: 14 (EPM), SEQ ID NO: 13 (FCP), SEQ ID NO: 16 (SRG), SEQ ID NO: 17 (QSP) , with respect to the wild-type phage (without an expressed sequence) and another nonspecific sequence (RTG); this representation is given by a histogram grouping together the results expressed as optical density values obtained for each CSF reduced by those obtained with PBS buffer controls in place of the phages; the immunoreactivity of the phage clones is tested in ELISA as described in Example 2, with respect to CSFs diluted 1/10; CSF 12 corresponds to a patient suffering from a neurological disease other than MS; CSF 4 and CSF 7 correspond to two patients suffering from MS.
In a first instance, 100 μl of anti-M13 phage antibodies diluted 1/500 in 0.1M NaHCO3, pH 8.6 (marketed by Prinn, Inc. Boulder, Colo. 80303) are bound overnight in the wells of Nunc maxisorb (trade name) microtiter plates. […] The optical density is measured on a BioMérieux plate reader at 492 nm. The IgM response is determined by addition of 100 μl of biotinylated anti-IgM conjugate diluted 1/4000 (Biomérieux monoclonal antibody) followed by the addition, after the washes, of the streptavidin-peroxidase conjugate diluted 1/10,000. […]

[2] = test system: IgG of CSF from patients suffering from MS; assay: ELISA of polypeptides, IgG response of CSFs diluted 1/10 (Table 5, FIGS. 7A and 7B); set-up: key to IgG recognition by CSF: positive (+) if the OD value at 492 nm for a 1/10 dilution of the CSF is greater than the mean values obtained for the CSFs from the ND patients+3 times the standard deviation; settings: for number of positive (+) CSFs: total line, 15 MS patients, CSF 1/10
Excerpt: FIGS. 7A and 7B represents the IgG response of the polypeptides whose peptide sequence consists of, respectively, SEQ ID NO: 13, SEQ ID NO: 12, SEQ ID NO: 14, SEQ ID NO: 16, SEQ ID NO: 19 and SEQ ID NO: 15, with respect to CSFs diluted 1/10; the results assembled in the appended Table 5 are expressed by the difference in the optical density values obtained for the polypeptide tested and the values obtained for the HIV polypeptide used as control; ND corresponds to patients suffering from a neurological disease other than MS, and MS* corresponds to patients suffering from MS.
Table 5, illustrated in FIGS. 7A and 7B, collates the results on the specific recognition of CSF from patients suffering from MS for 6 polypeptides of the invention, SEQ ID NO: 13, SEQ ID NO: 12, SEQ ID NO: 14, SEQ ID NO: 16, SEQ ID NO: 19 and SEQ ID NO: 15.
For each polypeptide tested, identified in Table 5 by its peptide sequence, the CSFs from patients 1-22 suffering from Ms are determined as positive (+) if the OD value at 492 nm for a 1/10 dilution of the CSF is greater than the mean values obtained for the CSFs from the ND patients+3 times the standard deviation.

[3] = test system: IgG of pool of positive sera (MS remission sera); assay: ELISA of pentadecapeptide phage clones, pool of positive sera versus pool of negative sera; settings: phage clones carrying the sequence; 1/200 serum dilution; pool of positive sera compared with pool of negative sera
Experimental: In a first instance, 100 μl of anti-M13 phage antibodies diluted 1/500 in 0.1M NaHCO3, pH 8.6 (marketed by Prinn, Inc. Boulder, Colo. 80303) are bound overnight in the wells of Nunc maxisorb (trade name) microtiter plates. After three washes with TBS/0.05% Tween, the plates are passivated for 1 hour at 37° C. with 250 μl of TBS containing 10% goat serum and again washed three times with the same buffer. 100 μl of various purified phage clones are then incubated for 2 hours at 37° C. in the wells. […] After four washes in TBS/0.05% Tween, 100 μl of peroxidase-labeled anti-human IgG conjugate diluted 1/10,000 (marketed by Jackson Immuno Research Laboratories Inc.) are added before an incubation for one hour at 37° C. […] The staining reaction is interrupted by the addition of 50 μl of 1.8N sulfuric acid. The optical density is measured on a BioMérieux plate reader at 492 nm. The IgM response is determined by addition of 100 μl of biotinylated anti-IgM conjugate diluted 1/4000 (Biomérieux monoclonal antibody) followed by the addition, after the washes, of the streptavidin-peroxidase conjugate diluted 1/10,000.
A library of pentadecapeptides carried on 300 copies of the phage protein VIII was constructed on the same principle as the hexapeptide library using the vector f88-4 according to the work by Greewood et al. (J. Biol. Mol. 1991). […]

Sequence	recognition of the phage clone by CSFs [1]	IgG recognition by CSF ([2]; CSF of MS patient 1, 1/10)	IgG recognition by CSF ([2]; CSF of MS patient 2, 1/10)	IgG recognition by CSF ([2]; CSF of MS patient 3, 1/10)	IgG recognition by CSF ([2]; CSF of MS patient 5, 1/10)	IgG recognition by CSF ([2]; CSF of MS patient 7, 1/10)	IgG recognition by CSF ([2]; CSF of MS patient 10, 1/10)	IgG recognition by CSF ([2]; CSF of MS patient 18, 1/10)	IgG recognition by CSF ([2]; CSF of MS patient 21, 1/10)	number of positive (+) CSFs [2]	IgG recognition by CSF ([2]; CSF of MS patient 8, 1/10)	IgG recognition by CSF ([2]; CSF of MS patient 20, 1/10)	IgG recognition by CSF ([2]; CSF of MS patient 6, 1/10)	IgG recognition by CSF ([2]; CSF of MS patient 16, 1/10)	average positive IgG response [3]	IgG recognition by CSF ([2]; CSF of MS patient 22, 1/10)
EPMTPHQWITLYRSY (MSRV) [SEQ ID NO: 14]	recognized only by CSF 7	+	+	+	+	+	+	+	+	8+						
FCPPILPYSAWCPVP (MSRV) [SEQ ID NO: 13]	recognized specifically by CSFs 7 and 4	+	+	+	+	+	+	+	+	10+	+	+				
MPVSRLCIELDWCPP (MSRV) [SEQ ID NO: 12]		+	+		+	+	+	+	+	10+	+		+	+		
NACYVDLFLGASVCP (cysteine pairing not given here) [SEQ ID NO: 10, pentadecapeptide carried by phage clones]															0.069	
RGTQEWTELWVSFRA (MSRV) [SEQ ID NO: 19]					+	+	+	+	+	8+	+		+			+
SRGSHEWAVLFRFYY (MSRV) [SEQ ID NO: 16]		+	+	+	+	+	+	+	+	11+	+		+			+
SSAKSHCYAFCSGLP (cysteine pairing not given here) [SEQ ID NO: 11, pentadecapeptide carried by phage clones]															0.248	

Source: patent publication US6555091B1, “Polypeptide capable of reacting with antibodies of patients suffering from multiple sclerosis and uses” (Bio Merieux, priority 1997, dated 2003)
